Measurements reported in patent publication US12691096B2, “Drug-controlled systems and uses thereof” (TRUSTEES OF BOSTON UNIVERSITY, priority 2020, dated 2026).

Assays:
[1] = molecular target: T1, dNS3 (Hepatitis C virus genotype 1b, UniProt P26663, A1092G/F1173S/K1113A/P1112Q/S1165A); assay type: cell-based, hepatitis C virus (HCV); settings: dNS3-NLuc and CLuc-PMED; HEK293FT lysates; drug added at time of transfection, 48 hours
T1 construct: expressed in transfected cells; host or cells: HEK293FT (read in lysate)
Experimental: To test this, permutations of dNS3, NS3wT and each peptide variant were fused to split fragments of Renilla luciferase (FIG. 2A).
(§1) Luciferase assay. HEK293FT cells were transfected with split luciferase constructs. In the case of drug pretreatment for dose curve experiments, drug was added at the indicated concentration at the time of transfection. Two days later, the transfected cells were lysed with 1× Ex Luciferase Assay Buffer using the Nano-Glo® Dual-Luciferase® Reporter Assay System (Promega). Immediately after, the samples were treated with an additional volume of 1× Ex Luciferase Assay Buffer with the indicated concentration of drug.
(§2) The samples were then read with a plate reader once per minute measuring luminescence with 500 millisecond exposure time. […] For kinetics analysis, linear regression analysis was performed on the untreated samples and used to normalize the data for the treated samples.

[2] = molecular target: wild-type NS3 (Hepatitis C virus genotype 1b, UniProt P26663, A1092G/F1173S/K1113A/P1112Q); assay type: cell-based, hepatitis C virus (HCV); settings: NS3WT-NLuc and CLuc-PMED; compared with dNS3
Experimental: as §1, §2

[3] = molecular target: T1, dNS3; assay type: biochemical, hepatitis C virus (HCV); settings: saturating drug concentrations; 3 pM of each drug added at time of lysis
Experimental: as §1, §2

[4] = molecular target: dNS3-Cre-PHI (Hepatitis C virus genotype 1b, UniProt P26663, A1092G/F1173S/K1113A/P1112Q/S1165A); settings: catalytic NS3 S139A mutation (dNS3)
Text: (§3) For Cre recombinase control in mammalian cells, live cells were gated in the same manner as above and gated for transfection by either a co-transfection marker of pmiRFP670-N1 or inter-plasmatic constitutive expression of iRFP670 under a separate constitutive promoter. Cells were further deemed as GFP positive if their fluorescence intensity was greater than or equal to the top 1% of non-transfected cells. Baseline activation of GFP positive cells was then subtracted using transfection marker only cells as baseline for all measurements.

[5] = molecular target: NS3(TI) with S139A mutation (Hepatitis C virus genotype 1b, UniProt P26663, D1194Y/F1069L/Q1106K/S1148R/S1165A); assay type: cell-based, hepatitis C virus (HCV); settings: among the three drugs tested (grazoprevir, asunaprevir, telaprevir)
Text: (§4) To accomplish this, it was sought to make orthogonal inducible Cre recombinases.
as §3

[6] = molecular target: telaprevir inducible (TI) NS3 (Hepatitis C virus genotype 1b, UniProt P26663, D1194Y/F1069L/Q1106K/S1148R); assay type: cell-based, hepatitis C virus (HCV); settings: telaprevir (10 pM); flow cytometry 48 hours post-drug addition
Text: as §4, §3

T1 sequence (P26663 1027-1206 A1092G/P1112Q/K1113A/S1165A/F1173S): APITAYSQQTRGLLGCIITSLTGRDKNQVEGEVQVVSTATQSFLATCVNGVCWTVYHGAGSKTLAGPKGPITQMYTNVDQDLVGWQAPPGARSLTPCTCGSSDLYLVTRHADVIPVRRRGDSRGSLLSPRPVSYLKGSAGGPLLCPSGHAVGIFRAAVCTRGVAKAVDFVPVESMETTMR
Chain of NS3(TI) with S139A mutation (P26663 1027-1206 F1069L/A1092G/Q1106K/P1112Q/K1113A/S1148R/S1165A/F1173S/D1194Y): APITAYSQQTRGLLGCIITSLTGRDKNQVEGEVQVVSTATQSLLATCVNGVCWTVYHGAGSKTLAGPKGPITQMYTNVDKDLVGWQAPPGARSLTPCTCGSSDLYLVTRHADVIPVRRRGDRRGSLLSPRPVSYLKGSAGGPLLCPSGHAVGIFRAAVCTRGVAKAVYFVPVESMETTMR
Chain of wild-type NS3 (P26663 1027-1206 A1092G/P1112Q/K1113A/F1173S): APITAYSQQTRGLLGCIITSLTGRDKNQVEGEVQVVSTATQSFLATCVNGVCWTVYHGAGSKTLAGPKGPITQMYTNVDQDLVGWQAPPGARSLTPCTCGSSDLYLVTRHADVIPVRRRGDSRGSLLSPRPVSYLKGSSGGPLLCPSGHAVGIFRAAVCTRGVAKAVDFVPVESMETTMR
Chain of telaprevir inducible (TI) NS3 (P26663 1027-1206 F1069L/A1092G/Q1106K/P1112Q/K1113A/S1148R/F1173S/D1194Y): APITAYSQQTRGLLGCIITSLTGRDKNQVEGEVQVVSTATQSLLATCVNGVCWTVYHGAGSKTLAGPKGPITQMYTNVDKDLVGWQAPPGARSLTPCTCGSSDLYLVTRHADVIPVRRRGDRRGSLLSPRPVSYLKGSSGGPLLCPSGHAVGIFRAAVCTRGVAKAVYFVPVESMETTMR
Chain of dNS3-Cre-PHI (P26663 1027-1206 A1092G/P1112Q/K1113A/S1165A/F1173S): as the sequence (P26663 1027-1206 A1092G/P1112Q/K1113A/S1165A/F1173S) above

CCC[C@H](NC(=O)[C@@H]1[C@H]2CCC[C@H]2CN1C(=O)[C@@H](NC(=O)[C@@H](NC(=O)c1cnccn1)C1CCCCC1)C(C)(C)C)C(=O)C(=O)NC1CC1 [telaprevir]
Luciferase activity, dose response [1]: significant resistance
Luciferase activity, dose response with wild-type NS3 [2]: effect is reverted
Dissociation of dNS3-PMED complexes (temporal turn-off) [3]: did not dissociate dNS3-PMD complexes well
Effect of NS3 S139A mutation alone on drug induction of Cre [4]: reduce telaprevir sensitivity
Drug sensitivity of NS3(TI) Cre with NS3 S139A mutation [5]: ablates telaprevir sensitivity
Induction of Cre recombination, telaprevir inducible (TI) construct [6]: strongly induced

CC(C)(C)OC(=O)N[C@H]1CCCCC/C=C\[C@@H]2C[C@@]2(C(=O)NS(=O)(=O)C2CC2)NC(=O)[C@@H]2C[C@@H](OC(=O)N3Cc4cccc(F)c4C3)CN2C1=O [danoprevir, Danoprevir]
Luciferase activity, dose response [1]: inhibit luciferase activity in a dose dependent manner
